The target of the assay is T1, Lethal factor (Bacillus anthracis, UniProt P15917).
T1 sequence (P15917 whole entry): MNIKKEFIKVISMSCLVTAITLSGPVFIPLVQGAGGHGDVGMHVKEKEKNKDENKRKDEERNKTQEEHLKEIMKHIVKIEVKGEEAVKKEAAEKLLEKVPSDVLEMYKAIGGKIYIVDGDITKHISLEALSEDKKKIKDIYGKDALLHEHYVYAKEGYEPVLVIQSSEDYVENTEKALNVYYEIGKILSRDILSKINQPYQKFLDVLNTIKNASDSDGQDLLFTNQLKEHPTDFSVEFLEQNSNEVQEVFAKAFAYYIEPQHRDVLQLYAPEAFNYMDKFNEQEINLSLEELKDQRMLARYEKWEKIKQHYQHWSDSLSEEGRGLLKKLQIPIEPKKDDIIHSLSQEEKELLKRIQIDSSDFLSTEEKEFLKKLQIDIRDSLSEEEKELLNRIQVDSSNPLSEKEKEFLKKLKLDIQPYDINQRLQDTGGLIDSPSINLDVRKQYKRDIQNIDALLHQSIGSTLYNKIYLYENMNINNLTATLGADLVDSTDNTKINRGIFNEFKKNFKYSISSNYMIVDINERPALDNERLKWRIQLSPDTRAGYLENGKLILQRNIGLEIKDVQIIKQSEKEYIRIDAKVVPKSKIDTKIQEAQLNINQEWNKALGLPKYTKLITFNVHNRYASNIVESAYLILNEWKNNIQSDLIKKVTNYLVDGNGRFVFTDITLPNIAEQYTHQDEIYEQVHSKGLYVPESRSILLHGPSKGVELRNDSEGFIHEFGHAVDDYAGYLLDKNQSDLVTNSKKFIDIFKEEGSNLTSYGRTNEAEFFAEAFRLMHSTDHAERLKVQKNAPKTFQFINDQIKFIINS
Description: Inhibition of Bacillus anthracis LF by FRET assay. The note with it: read-out: Ki app.
Turning to `N=C(N)Nc1cc(NC(=N)N)c2ccccc2c1[C@H]1C[C@@H](O)[C@H](NC(=N)N)C[C@@H]1NC(=N)N`, the Ki was 10.7 µM.

Consider `N=C(N)Nc1ccc([C@H]2C[C@@H](O)[C@H](NC(=N)N)C[C@@H]2NC(=N)N)cc1`, for which the Ki turned out to be 14.9 µM. Then `N=C(N)Nc1ccccc1NC(=O)O[C@H]1C[C@@H](O)[C@H](NC(=N)N)C[C@@H]1NC(=N)N`, with 24.8 µM; and `N=C(N)Nc1ccc([C@H]2C[C@@H](O)[C@H](NC(=N)N)C[C@@H]2NC(=N)N)nc1`, with 6.6 µM. As for `N=C(N)Nc1cccnc1[C@H]1C[C@@H](O)[C@H](NC(=N)N)C[C@@H]1NC(=N)N`, the figure is 4.1 µM. For `N=C(N)Nc1ccc([C@H]2C[C@@H](O)[C@H](NC(=N)N)C[C@@H]2NC(=N)N)c(NC(=N)N)c1`, the Ki was 0.6 µM.

On to `N=C(N)Nc1ccccc1[C@H]1C[C@@H](O)[C@H](NC(=N)N)C[C@@H]1NC(=N)N`, for which the Ki came out at 30.6 µM. Then `N=C(N)N[C@H]1C[C@@H](NC(=N)N)[C@H](O)C[C@@H]1c1ccc2[nH]c(N)nc2c1`, with 154 µM.

On to `N=C(N)Nc1ccc(O[C@H]2C[C@@H](Oc3ccc(NC(=N)N)cc3NC(=N)N)[C@H](NC(=N)N)C[C@@H]2NC(=N)N)c(NC(=N)N)c1`, for which the Ki worked out at 0.065 µM. Then `N=C(N)Nc1ccc([C@H]2C[C@@H](O)[C@H](NC(=N)N)C[C@@H]2NC(=N)N)c2ccccc12`, with 31.4 µM; and `Cc1cc(NC(=O)O[C@@H]2C[C@H](Oc3ccc(NC(=N)N)cc3N=C(N)N)[C@@H](N=C(N)N)C[C@H]2N=C(N)N)ccc1F`, with 0.5 µM.

(Values after ChEMBL document CHEMBL1146060, “Guanidinylated 2,5-dideoxystreptamine derivatives as anthrax lethal factor inhibitors” (Bioorg Med Chem Lett, 2006).)
